In US4992530A, “Calcitonin-gene-related peptide derivatives” (Toyo Jozo Kabushiki Kaisha, priority 1987, dated 1991):
Ends that are not written are not given here. Peptide text beside a SMILES is read from it.

Columns and labels:
[1] = Serum calcium reducing activity in rats (atomic absorption spectrophotometry); format: in vivo; details: 80 μg/kg intravenously, Wistar rats; for prolongation of serum calcium reducing effect compared with h-CGRP / serum calcium reducing activity compared with h-CGRP: comparator h-CGRP; for serum calcium reducing activity compared with h-CGRP: same dose; for reduction of serum calcium concentration as compared with the control group: tail vein, vs dissolving medium group, FIG. 1
Experimental: (§1) Serum calcium and serum phosphate reducing activities: Assay method:
(§2) The peptide (1) of the present invention and known h-CGRP (each 80 μg) dissolved in citrate buffer, pH 6.5, containing 0.1% bovine serum albumin (hereinafter designated dissolving medium) (1 ml) were administered intravenously into the tail vein of Wistar rats, body weight 80-90 g, 5-6 rats in one group, at 80 μg/kg. After 30 and 60 mins. of administration, blood samples were collected from the abdominal descending aorta. The serum calcium concentration was measured by atomic adsorption spectrophotometry. Serum phosphate was measured by a method according to Goldenberg et al. [Clin. Chem., 12: 872-882 (1966)].

[2] = Serum phosphate reducing activity in rats (method of Goldenberg et al.); format: in vivo; details: 80 μg/kg intravenously, Wistar rats; for prolongation of serum phosphate reducing effect compared with h-CGRP / serum phosphate reducing activity compared with h-CGRP: comparator h-CGRP; for serum phosphate reducing activity compared with h-CGRP: same dose; for reduction of serum phosphate concentration as compared with the control group: tail vein, vs dissolving medium group, FIG. 2
Experimental: as §1, §2

CC(C)C[C@H](NC(=O)[C@H](CCCNC(=N)N)NC(=O)[C@H](Cc1c[nH]cn1)NC(=O)[C@@H](NC(=O)[C@@H](NC(=O)[C@@H]1CSSC[C@H](NC(=O)[C@H](C)N)C(=O)N[C@@H](CC(N)=O)C(=O)N[C@@H]([C@@H](C)O)C(=O)N[C@@H](C)C(=O)N[C@@H]([C@@H](C)O)C(=O)N1)C(C)C)[C@@H](C)O)C(=O)N[C@@H](C)C(=O)N[C@@H](CC(=O)O)C(=O)N[C@@H](Cc1ccccc1)C(=O)N[C@@H](CC(C)C)C(=O)N[C@@H](CO)C(=O)N[C@@H](CCCNC(=N)N)C(=O)N[C@@H](CO)C(=O)NCC(=O)NCC(=O)N[C@H](C(=O)N[C@H](C(=O)N[C@@H](CCCCN)C(=O)N[C@@H](CC(N)=O)C(=O)N[C@@H](CC(N)=O)C(=O)N[C@@H](Cc1ccccc1)C(=O)N[C@H](C(=O)N1CCC[C@H]1C(=O)N[C@H](C(=O)N[C@@H](CC(N)=O)C(=O)N[C@H](C(=O)NCC(=O)N[C@@H](CO)C(=O)N[C@@H](CCCCN)C(=O)N[C@@H](C)C(=O)N[C@@H](Cc1ccccc1)C(N)=O)C(C)C)[C@@H](C)O)C(C)C)C(C)C)C(C)C [Asn^3,Asp^14,Phe^15] h-CGRP(1-37), [Asn^3,Asp^14,Phe^15] h-CGRP(1-37)] (HELM PEPTIDE1{A.C.N.T.A.T.C.V.T.H.R.L.A.D.F.L.S.R.S.G.G.V.V.K.N.N.F.V.P.T.N.V.G.S.K.A.F.[am]}$PEPTIDE1,PEPTIDE1,2:R3-7:R3$$$V2.0)
duration of serum calcium reducing activity [1]: more than 2 hours
prolongation of serum calcium reducing effect compared with h-CGRP [1]: prolonged significantly
serum calcium reducing activity compared with h-CGRP [1]: stronger than those of h-CGRP
reduction of serum calcium concentration as compared with the control group [1]: 20-30%
duration of serum phosphate reducing activity [2]: more than 2 hours
prolongation of serum phosphate reducing effect compared with h-CGRP [2]: prolonged significantly
serum phosphate reducing activity compared with h-CGRP [2]: stronger than those of h-CGRP
reduction of serum phosphate concentration as compared with the control group [2]: 20-30%

CC(C)C[C@H](NC(=O)[C@H](CCCNC(=N)N)NC(=O)[C@H](Cc1c[nH]cn1)NC(=O)[C@@H](NC(=O)[C@@H](NC(=O)[C@@H]1CSSC[C@H](NC(=O)[C@H](C)N)C(=O)N[C@@H](CC(N)=O)C(=O)N[C@@H]([C@@H](C)O)C(=O)N[C@@H](C)C(=O)N[C@@H]([C@@H](C)O)C(=O)N1)C(C)C)[C@@H](C)O)C(=O)N[C@@H](C)C(=O)NCC(=O)N[C@@H](Cc1ccccc1)C(=O)N[C@@H](CC(C)C)C(=O)N[C@@H](CO)C(=O)N[C@@H](CCCNC(=N)N)C(=O)N[C@@H](CO)C(=O)NCC(=O)NCC(=O)N[C@H](C(=O)NCC(=O)N[C@@H](CCCCN)C(=O)N[C@@H](CC(N)=O)C(=O)N[C@@H](CC(N)=O)C(=O)N[C@@H](Cc1ccccc1)C(=O)N[C@H](C(=O)N1CCC[C@H]1C(=O)N[C@H](C(=O)N[C@@H](CC(N)=O)C(=O)N[C@H](C(=O)NCC(=O)N[C@@H](CO)C(=O)N[C@@H](CCCCN)C(=O)N[C@@H](C)C(=O)N[C@@H](Cc1ccccc1)C(N)=O)C(C)C)[C@@H](C)O)C(C)C)C(C)C [[Asn^3, Phe^15,Gly^23] h-CGRP(1-37), [Asn^3,Phe^15,Gly^23] h-CGRP(1-37)] (HELM PEPTIDE1{A.C.N.T.A.T.C.V.T.H.R.L.A.G.F.L.S.R.S.G.G.V.G.K.N.N.F.V.P.T.N.V.G.S.K.A.F.[am]}$PEPTIDE1,PEPTIDE1,2:R3-7:R3$$$V2.0)
duration of serum calcium reducing activity [1]: more than 2 hours
prolongation of serum calcium reducing effect compared with h-CGRP [1]: prolonged significantly
serum calcium reducing activity compared with h-CGRP [1]: stronger than those of h-CGRP
reduction of serum calcium concentration as compared with the control group [1]: 20-30%
duration of serum phosphate reducing activity [2]: more than 2 hours
prolongation of serum phosphate reducing effect compared with h-CGRP [2]: prolonged significantly
serum phosphate reducing activity compared with h-CGRP [2]: stronger than those of h-CGRP
reduction of serum phosphate concentration as compared with the control group [2]: 20-30%

CC(C)C[C@H](NC(=O)[C@H](CCCNC(=N)N)NC(=O)[C@H](Cc1c[nH]cn1)NC(=O)[C@@H](NC(=O)[C@@H](NC(=O)[C@@H]1CSSC[C@H](NC(=O)[C@H](C)N)C(=O)N[C@@H](CC(N)=O)C(=O)N[C@@H]([C@@H](C)O)C(=O)N[C@@H](C)C(=O)N[C@@H]([C@@H](C)O)C(=O)N1)C(C)C)[C@@H](C)O)C(=O)N[C@@H](C)C(=O)N[C@@H](CC(=O)O)C(=O)N[C@@H](CC(C)C)C(=O)N[C@@H](CC(C)C)C(=O)N[C@@H](CO)C(=O)N[C@@H](CCCNC(=N)N)C(=O)N[C@@H](CO)C(=O)NCC(=O)NCC(=O)N[C@H](C(=O)NCC(=O)N[C@@H](CCCCN)C(=O)N[C@@H](CC(N)=O)C(=O)N[C@@H](CC(N)=O)C(=O)N[C@@H](Cc1ccccc1)C(=O)N[C@H](C(=O)N1CCC[C@H]1C(=O)N[C@H](C(=O)N[C@@H](CC(N)=O)C(=O)N[C@H](C(=O)NCC(=O)N[C@@H](CO)C(=O)N[C@@H](CCCCN)C(=O)N[C@@H](C)C(=O)N[C@@H](Cc1ccccc1)C(N)=O)C(C)C)[C@@H](C)O)C(C)C)C(C)C [[Asn^3,Asp^14,Gly^23] h-CGRP(1-37)] (HELM PEPTIDE1{A.C.N.T.A.T.C.V.T.H.R.L.A.D.L.L.S.R.S.G.G.V.G.K.N.N.F.V.P.T.N.V.G.S.K.A.F.[am]}$PEPTIDE1,PEPTIDE1,2:R3-7:R3$$$V2.0)
duration of serum calcium reducing activity [1]: more than 2 hours
prolongation of serum calcium reducing effect compared with h-CGRP [1]: prolonged significantly
serum calcium reducing activity compared with h-CGRP [1]: stronger than those of h-CGRP
reduction of serum calcium concentration as compared with the control group [1]: 20-30%
duration of serum phosphate reducing activity [2]: more than 2 hours
prolongation of serum phosphate reducing effect compared with h-CGRP [2]: prolonged significantly
serum phosphate reducing activity compared with h-CGRP [2]: stronger than those of h-CGRP
reduction of serum phosphate concentration as compared with the control group [2]: 20-30%

[Asp^14 ] h-CGRP(1-37) (ACDTATCVTHRLADLLSRSGGVVKNNFVPTNVGSKAF; ends and bridges not checked; cysteine pairing not given here; UniProt P06881 83-119, looked up, variant G14D) [R = H--Ala--NH--, A = Asp, B = Asp, C = Leu, D = Val]
duration of serum calcium reducing activity [1]: more than 2 hours
prolongation of serum calcium reducing effect compared with h-CGRP [1]: prolonged significantly
serum calcium reducing activity compared with h-CGRP [1]: stronger than those of h-CGRP
reduction of serum calcium concentration as compared with the control group [1]: 20-30%
duration of serum phosphate reducing activity [2]: more than 2 hours
prolongation of serum phosphate reducing effect compared with h-CGRP [2]: prolonged significantly
serum phosphate reducing activity compared with h-CGRP [2]: stronger than those of h-CGRP
reduction of serum phosphate concentration as compared with the control group [2]: 20-30%

desalanyl-deamino-[Asp^14 ] h-CGRP(2-37) [desalanyl-deamino-[Asp14] h-CGRP(2-37)]
duration of serum calcium reducing activity [1]: more than 2 hours
prolongation of serum calcium reducing effect compared with h-CGRP [1]: prolonged significantly
serum calcium reducing activity compared with h-CGRP [1]: stronger than those of h-CGRP
reduction of serum calcium concentration as compared with the control group [1]: 20-30%
duration of serum phosphate reducing activity [2]: more than 2 hours
prolongation of serum phosphate reducing effect compared with h-CGRP [2]: prolonged significantly
serum phosphate reducing activity compared with h-CGRP [2]: stronger than those of h-CGRP
reduction of serum phosphate concentration as compared with the control group [2]: 20-30%
